From patent publication US20230143604A1, “QW DOSING OF GIP RECEPTOR AGONIST PEPTIDE COMPOUNDS AND USES THEREOF” (TAKEDA PHARMACEUTICAL COMPANY LIMITED, priority 2020, published 2023)
Starred links: 1 amine or outer side, 2 acyl side, 3 side chain; linkers in the order of their positions; H or OH if unused. Non-standard residues stand in square brackets, D forms with d. Residues, ends and D or L forms follow the SMILES beside them. Groups on a side chain read outwards from the residue. *: point of attachment. C20 diacid = O=C(O)CCCCCCCCCCCCCCCCCCC(=O)*; C18 diacid = O=C(O)CCCCCCCCCCCCCCCCC(=O)*; C17 diacid = O=C(O)CCCCCCCCCCCCCCCC(=O)*; γGlu = O=C(O)[C@H](CCC(=O)[*:2])N[*:1]; NMeY = CN[C@@H](Cc1ccc(O)cc1)C(=O)O; AEEA = NCCOCCOCC(=O)O; Aib = CC(C)(N)C(=O)O

Experiment: Solubility in phosphate buffer pH 7.4
Summary of the method: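 3 mg of peptide treated with 100 μL portions of 200 mM phosphate buffer pH 7.4, sonicating/vortexing up to 1 min, with further buffer added until fully dissolved. Solubility then quantified by HPLC.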

[1] = pH 7.4, aqueous buffer, pH 7.4 Phosphate Buffer - Solubility, 200 mM Phosphate buffer pH 7.4
[2] = pH 7.4, solubility in phosphate buffer at pH 7.4, 200 mM phosphate buffer pH 7.4

Row | Structure (SMILES) | solubility [1] [mg/mL] | solubility [2] [mg/mL]
1 | CC[C@H](C)[C@H](NC(=O)[C@H](Cc1ccccc1)NC(=O)[C@@H](NC(=O)CNC(=O)[C@H](CCC(=O)O)NC(=O)C(C)(C)NC(=O)[C@H](Cc1ccc(O)cc1)NC)[C@@H](C)O)C(=O)N[C@@H](CO)C(=O)N[C@@H](CC(=O)O)C(=O)N[C@@H](Cc1ccc(O)cc1)C(=O)N[C@@H](CO)C(=O)N[C@H](C(=O)NC(C)(C)C(=O)N[C@@H](CC(C)C)C(=O)N[C@@H](CC(=O)O)C(=O)N[C@@H](CCCNC(=N)N)C(=O)NC(C)(C)C(=O)N[C@@H](C)C(=O)N[C@@H](CCC(N)=O)C(=O)NC(C)(C)C(=O)N[C@@H](CCCCNC(=O)COCCOCCNC(=O)CC[C@H](NC(=O)CC[C@H](NC(=O)CCCCCCCCCCCCCCCCC(=O)O)C(=O)O)C(=O)O)C(=O)N[C@@H](Cc1ccccc1)C(=O)N[C@H](C(=O)N[C@@H](CC(N)=O)C(=O)N[C@@H](Cc1c[nH]c2ccccc12)C(=O)N[C@@H](CC(C)C)C(=O)N[C@@H](CC(C)C)C(=O)N[C@@H](C)C(=O)N[C@@H](CCC(N)=O)C(=O)N[C@@H](CO)C(=O)N1CCC[C@H]1C(=O)N[C@@H](CO)C(=O)N[C@@H](CO)C(=O)NCC(=O)N[C@@H](C)C(=O)N1CCC[C@H]1C(=O)N1CCC[C@H]1C(=O)N1CCC[C@H]1C(=O)N[C@@H](CO)C(N)=O)C(C)C)[C@@H](C)CC [Compound 93] (H-[NMeY][Aib]EGTFISDYSI[Aib]LDR[Aib]AQ[Aib]K([AEEA-γGlu-γGlu-C18 diacid])FVNWLLAQSPSSGAPPPS-NH2) | ≥ 60 | ≥ 15
2 | CC[C@H](C)[C@H](NC(=O)[C@H](Cc1ccccc1)NC(=O)[C@@H](NC(=O)CNC(=O)[C@H](CCC(=O)O)NC(=O)C(C)(C)NC(=O)[C@H](Cc1ccc(O)cc1)NC)[C@@H](C)O)C(=O)N[C@@H](CO)C(=O)N[C@@H](CC(=O)O)C(=O)N[C@@H](Cc1ccc(O)cc1)C(=O)N[C@@H](CO)C(=O)N[C@H](C(=O)NC(C)(C)C(=O)N[C@@H](CC(C)C)C(=O)N[C@@H](CC(=O)O)C(=O)N[C@@H](CCCNC(=N)N)C(=O)NC(C)(C)C(=O)N[C@@H](C)C(=O)N[C@@H](CCC(N)=O)C(=O)NC(C)(C)C(=O)N[C@@H](CCCCNC(=O)COCCOCCNC(=O)COCCOCCNC(=O)CC[C@H](NC(=O)CC[C@H](NC(=O)CCCCCCCCCCCCCCCC(=O)O)C(=O)O)C(=O)O)C(=O)N[C@@H](Cc1ccccc1)C(=O)N[C@H](C(=O)N[C@@H](CC(N)=O)C(=O)N[C@@H](Cc1c[nH]c2ccccc12)C(=O)N[C@@H](CC(C)C)C(=O)N[C@@H](CC(C)C)C(=O)N[C@@H](C)C(=O)N[C@@H](CCC(N)=O)C(=O)N[C@@H](CO)C(=O)N1CCC[C@H]1C(=O)N[C@@H](CO)C(=O)N[C@@H](CO)C(=O)NCC(=O)N[C@@H](C)C(=O)N1CCC[C@H]1C(=O)N1CCC[C@H]1C(=O)N1CCC[C@H]1C(=O)N[C@@H](CO)C(N)=O)C(C)C)[C@@H](C)CC [Compound 94] (H-[NMeY][Aib]EGTFISDYSI[Aib]LDR[Aib]AQ[Aib]K([AEEA-AEEA-γGlu-γGlu-C17 diacid])FVNWLLAQSPSSGAPPPS-NH2) | ≥ 60 | ≥ 15
3 | CC[C@H](C)[C@H](NC(=O)[C@H](CO)NC(=O)[C@H](Cc1ccc(O)cc1)NC(=O)[C@H](CC(=O)O)NC(=O)[C@H](CO)NC(=O)[C@@H](NC(=O)[C@H](Cc1ccccc1)NC(=O)[C@@H](NC(=O)CNC(=O)[C@H](CCC(=O)O)NC(=O)C(C)(C)NC(=O)[C@H](Cc1ccc(O)cc1)NC)[C@@H](C)O)[C@@H](C)CC)C(=O)N[C@@H](C)C(=O)N[C@@H](CC(C)C)C(=O)N[C@@H](CC(=O)O)C(=O)N[C@@H](CCCNC(=N)N)C(=O)NC(C)(C)C(=O)N[C@@H](C)C(=O)N[C@@H](CCC(N)=O)C(=O)NC(C)(C)C(=O)N[C@@H](CCCCNC(=O)COCCOCCNC(=O)COCCOCCNC(=O)CC[C@H](NC(=O)CC[C@H](NC(=O)CCCCCCCCCCCCCCCCC(=O)O)C(=O)O)C(=O)O)C(=O)N[C@@H](Cc1ccccc1)C(=O)N[C@H](C(=O)N[C@@H](CC(N)=O)C(=O)N[C@@H](Cc1c[nH]c2ccccc12)C(=O)N[C@@H](CC(C)C)C(=O)N[C@@H](CC(C)C)C(=O)N[C@@H](C)C(=O)N[C@@H](CCC(N)=O)C(=O)N[C@@H](CO)C(=O)N1CCC[C@H]1C(=O)N[C@@H](CO)C(=O)N[C@@H](CO)C(=O)NCC(=O)N[C@@H](C)C(=O)N1CCC[C@H]1C(=O)N1CCC[C@H]1C(=O)N1CCC[C@H]1C(=O)N[C@@H](CO)C(N)=O)C(C)C [Compound 97] (H-[NMeY][Aib]EGTFISDYSIALDR[Aib]AQ[Aib]K([AEEA-AEEA-γGlu-γGlu-C18 diacid])FVNWLLAQSPSSGAPPPS-NH2) | ≥ 60 | ≥ 15
4 | CC[C@H](C)[C@H](NC(=O)[C@H](CO)NC(=O)[C@H](Cc1ccc(O)cc1)NC(=O)[C@H](CC(=O)O)NC(=O)[C@H](CO)NC(=O)[C@@H](NC(=O)[C@H](Cc1ccccc1)NC(=O)[C@@H](NC(=O)CNC(=O)[C@H](CCC(=O)O)NC(=O)C(C)(C)NC(=O)[C@H](Cc1ccc(O)cc1)NC)[C@@H](C)O)[C@@H](C)CC)C(=O)N[C@@H](C)C(=O)N[C@@H](CC(C)C)C(=O)N[C@@H](CC(=O)O)C(=O)N[C@@H](CCCNC(=N)N)C(=O)NC(C)(C)C(=O)N[C@@H](CCCCNC(=O)COCCOCCNC(=O)COCCOCCNC(=O)CC[C@H](NC(=O)CC[C@H](NC(=O)CCCCCCCCCCCCCCCCCCC(=O)O)C(=O)O)C(=O)O)C(=O)N[C@@H](CCC(N)=O)C(=O)NC(C)(C)C(=O)N[C@@H](CC(N)=O)C(=O)N[C@@H](Cc1ccccc1)C(=O)N[C@H](C(=O)N[C@@H](CC(N)=O)C(=O)N[C@@H](Cc1c[nH]c2ccccc12)C(=O)N[C@@H](CC(C)C)C(=O)N[C@@H](CC(C)C)C(=O)N[C@@H](C)C(=O)N[C@@H](CCC(N)=O)C(=O)N[C@@H](CO)C(=O)N1CCC[C@H]1C(=O)N[C@@H](CO)C(=O)N[C@@H](CO)C(=O)NCC(=O)N[C@@H](C)C(=O)N1CCC[C@H]1C(=O)N1CCC[C@H]1C(=O)N1CCC[C@H]1C(=O)N[C@@H](CO)C(N)=O)C(C)C [Compound 99] (H-[NMeY][Aib]EGTFISDYSIALDR[Aib]K([AEEA-AEEA-γGlu-γGlu-C20 diacid])Q[Aib]NFVNWLLAQSPSSGAPPPS-NH2) | ≥ 60 | 
5 | CC[C@H](C)[C@H](NC(=O)[C@H](Cc1ccccc1)NC(=O)[C@@H](NC(=O)CNC(=O)[C@H](CCC(=O)O)NC(=O)C(C)(C)NC(=O)[C@H](Cc1ccc(O)cc1)NC)[C@@H](C)O)C(=O)N[C@@H](CO)C(=O)N[C@@H](CC(=O)O)C(=O)N[C@@H](Cc1ccc(O)cc1)C(=O)N[C@@H](CO)C(=O)N[C@H](C(=O)NC(C)(C)C(=O)N[C@@H](CC(C)C)C(=O)N[C@@H](CC(=O)O)C(=O)N[C@@H](CCCNC(=N)N)C(=O)NC(C)(C)C(=O)N[C@@H](CCCCNC(=O)COCCOCCNC(=O)COCCOCCNC(=O)CC[C@H](NC(=O)CC[C@H](NC(=O)CCCCCCCCCCCCCCCCC(=O)O)C(=O)O)C(=O)O)C(=O)N[C@@H](CCC(N)=O)C(=O)NC(C)(C)C(=O)N[C@@H](CC(N)=O)C(=O)N[C@@H](Cc1ccccc1)C(=O)N[C@H](C(=O)N[C@@H](CC(N)=O)C(=O)N[C@@H](Cc1c[nH]c2ccccc12)C(=O)N[C@@H](CC(C)C)C(=O)N[C@@H](CC(C)C)C(=O)N[C@@H](C)C(=O)N[C@@H](CCC(N)=O)C(=O)N[C@@H](CO)C(=O)N1CCC[C@H]1C(=O)N[C@@H](CO)C(=O)N[C@@H](CO)C(=O)NCC(=O)N[C@@H](C)C(=O)N1CCC[C@H]1C(=O)N1CCC[C@H]1C(=O)N1CCC[C@H]1C(=O)N[C@@H](CO)C(N)=O)C(C)C)[C@@H](C)CC [Compound 100] (H-[NMeY][Aib]EGTFISDYSI[Aib]LDR[Aib]K([AEEA-AEEA-γGlu-γGlu-C18 diacid])Q[Aib]NFVNWLLAQSPSSGAPPPS-NH2) | ≥ 60 | ≥ 15
6 | CC[C@H](C)[C@H](NC(=O)[C@H](Cc1ccccc1)NC(=O)[C@@H](NC(=O)CNC(=O)[C@H](CCC(=O)O)NC(=O)C(C)(C)NC(=O)[C@H](Cc1ccc(O)cc1)NC)[C@@H](C)O)C(=O)N[C@@H](CO)C(=O)N[C@@H](CC(=O)O)C(=O)N[C@@H](Cc1ccc(O)cc1)C(=O)N[C@@H](CO)C(=O)N[C@H](C(=O)NC(C)(C)C(=O)N[C@@H](CC(C)C)C(=O)N[C@@H](CC(=O)O)C(=O)N[C@@H](CCCNC(=N)N)C(=O)NC(C)(C)C(=O)N[C@@H](C)C(=O)N[C@@H](CCC(N)=O)C(=O)NC(C)(C)C(=O)N[C@@H](CCCCNC(=O)COCCOCCNC(=O)COCCOCCNC(=O)CC[C@H](NC(=O)CC[C@H](NC(=O)CCCCCCCCCCCCCCCCCCC(=O)O)C(=O)O)C(=O)O)C(=O)N[C@@H](Cc1ccccc1)C(=O)N[C@H](C(=O)N[C@@H](CC(N)=O)C(=O)N[C@@H](Cc1c[nH]c2ccccc12)C(=O)N[C@@H](CC(C)C)C(=O)N[C@@H](CC(C)C)C(=O)N[C@@H](C)C(=O)N[C@@H](CCC(N)=O)C(=O)N[C@@H](CCCNC(=N)N)C(=O)N1CCC[C@H]1C(=O)N[C@@H](CO)C(=O)N[C@@H](CO)C(=O)NCC(=O)N[C@@H](C)C(=O)N1CCC[C@H]1C(=O)N1CCC[C@H]1C(=O)N1CCC[C@H]1C(=O)N[C@@H](CO)C(N)=O)C(C)C)[C@@H](C)CC [Compound 101] (H-[NMeY][Aib]EGTFISDYSI[Aib]LDR[Aib]AQ[Aib]K([AEEA-AEEA-γGlu-γGlu-C20 diacid])FVNWLLAQRPSSGAPPPS-NH2) | ≥ 60 | ≥ 15
